Data reported in patent US11866408B2, “N,N-dimethyltryptamine and related psychedelics and uses thereof” (Terran Biosciences Inc., priority 2021, dated 2024).
Structures can show the parent of a compound that is named as a salt.

Legend:
[1] = Single oral dose pharmacokinetics study in rats (10 mg/kg PO; plasma levels of prodrug and of metabolite DMT or 5-MeO-DMT by LC-MS/MS); conditions: for Mean Plasma Concentration (ng/mL) of metabolite DMT: analyte DMT after oral dosing of prodrug 10 mg/Kg; for Mean Plasma Concentrations of metabolite DMT: prodrug 10 mg/Kg oral, male SD rats
[2] = Single intravenous dose pharmacokinetics study in rats (1 mg/kg IV; plasma levels of prodrug and of DMT or 5-MeO-DMT by LC-MS/MS); conditions: IV 1 mg/kg, plasma, analyte = dosed compound
[3] = male, Sprague-Dawley, rat, plasma, po, 10 mg/kg, AUC0-last (h*ng/mL), oral 10 mg/Kg, analyte = dosed prodrug, mean
[4] = male, Sprague-Dawley, rat, plasma, po, 10 mg/kg, Cmax (ng/mL), oral 10 mg/Kg, analyte = dosed prodrug, mean
[5] = oral 10 mg/Kg, analyte = dosed prodrug, median
[6] = PO 10 mg/kg, plasma, analyte = dosed compound
[7] = oral 10 mg/Kg, analyte = dosed prodrug, mean

## CN(C)CCc1cn(C(=O)OC(C)(C)C)c2ccccc12 [DMT CP-3, tert-butyl 3-[2-(dimethylamino)ethyl]indole-1-carboxylate]
[1]; [3]
  AUC(0-t): 13.8 ng·h/mL
[1]; [4]
  Cmax: 11.1 ng/mL
[1]; [5]
  tlast: 4.00 h

## CC(C)OP(=O)(OC(C)C)n1cc(CCN(C)C)c2ccccc21 [Diisopropylphosphonate DMT Prodrug, 2-(1-diisopropoxyphosphorylindol-3-yl)-N,N-dimethyl-ethanamine]
[1]; PO 10 mg/kg Plasma [Tlast = 4 h] vs IV 1 mg/kg
  Bioavailability (%) Using AUC0-t: 16.1%
[1]; PO 10 mg/kg Plasma [Tlast = 4 h], analyte = dosed prodrug
  tlast: 4.00 h
[1]; [6]
  Clast: 28.2 ng/mL
  tlast: 7.00 h
[1]; male, Sprague-Dawley, rat, plasma, po, 10 mg/kg, AUC0-t (nM.hr), PO 10 mg/kg Plasma [Tlast = 4 h], analyte = dosed prodrug
  AUC(0-t): 1.39 µM·h
[1]; male, Sprague-Dawley, rat, plasma, po, 10 mg/kg, AUC0-t (nM.hr), PO 10 mg/kg, analyte = dosed compound
  AUC(0-t): 1.83 µM·h
[1]; male, Sprague-Dawley, rat, plasma, po, 10 mg/kg, AUC0-t (ng.hr/mL), PO 10 mg/kg Plasma [Tlast = 4 h], analyte = dosed prodrug
  AUC(0-t): 489 ng·h/mL
[1]; male, Sprague-Dawley, rat, plasma, po, 10 mg/kg, AUC0-t (ng.hr/mL), PO 10 mg/kg, analyte = dosed compound
  AUC(0-t): 644 ng·h/mL
[1]; male, Sprague-Dawley, rat, plasma, po, 10 mg/kg, C0/Cmax (nM), PO 10 mg/kg Plasma [Tlast = 4 h], analyte = dosed prodrug
  Cmax: 554 nM
[1]; male, Sprague-Dawley, rat, plasma, po, 10 mg/kg, C0/Cmax (nM), PO 10 mg/kg, analyte = dosed compound
  Cmax: 554 nM
[1]; male, Sprague-Dawley, rat, plasma, po, 10 mg/kg, C0/Cmax (ng/mL), PO 10 mg/kg Plasma [Tlast = 4 h], analyte = dosed prodrug
  Cmax: 195 ng/mL
[1]; male, Sprague-Dawley, rat, plasma, po, 10 mg/kg, C0/Cmax (ng/mL), PO 10 mg/kg, analyte = dosed compound, mean/median
  Cmax: 195 ng/mL
[2]
  AUC % Back Extrapolation to C0: 36.7%
  AUC % Extrapolation to infinity: 3.21%
  Clast: 5.22 ng/mL
  tlast: 4.00 h
[2]; male, Sprague-Dawley, rat, iv, 1 mg/kg, AUC0-t (nM.hr)
  AUC(0-t): 0.862 µM·h
[2]; male, Sprague-Dawley, rat, iv, 1 mg/kg, AUC0-t (ng.hr/mL)
  AUC(0-t): 304 ng·h/mL
[2]; male, Sprague-Dawley, rat, iv, 1 mg/kg, AUCinf (nM.hr)
  AUC(0-inf): 0.881 µM·h
[2]; male, Sprague-Dawley, rat, iv, 1 mg/kg, AUCinf (ng.hr/mL)
  AUC(0-inf): 311 ng·h/mL
[2]; male, Sprague-Dawley, rat, iv, 1 mg/kg, CL/CL_F (mL/min/kg)
  clearance: 70.2 mL/min/kg
[2]; male, Sprague-Dawley, rat, iv, 1 mg/kg, MRT (h)
  MRT: 52.1 min
[2]; male, Sprague-Dawley, rat, iv, 1 mg/kg, Vdss (L/kg)
  Vd: 4.21 L/kg
[2]; male, Sprague-Dawley, rat, iv, 1 mg/kg, t1/2 (h)
  half-life: 51.9 min

## CCCOC(=O)n1cc(CCN(C)C)c2cc(OC)ccc21 [5-MeO-DMT CP-4, propyl 3-[2-(dimethylamino)ethyl]-5-methoxy-indole-1-carboxylate]
[1]; [3]
  AUC(0-t): 6.45 ng·h/mL
[1]; [4]
  Cmax: 4.85 ng/mL
[1]; [5]
  tlast: 3.00 h

## COc1ccc2c(c1)c(CCN(C)C)cn2C(=O)CCCC(=O)O [5-MeO-DMT Non-Lipid Prodrug 6, 5-(3-(2-(dimethylamino)ethyl)-5-methoxy-1H-indol-1-yl)-5-oxopentanoic acid]
[1]; [3]
  AUC(0-t): 362 ng·h/mL
[1]; [4]
  Cmax: 106 ng/mL
[1]; [5]
  tlast: 7.00 h

## CN(C)CCc1cn(C(=O)N2CCC(N3CCCCC3)CC2)c2ccccc12 [DMT 4-Piperidinopiperidine urea formate, [1,4′-Bipiperidin]-1′-yl(3-(2-(dimethylamino)ethyl)-1H-indol-1-yl)methanone]
[1]; 0.50 h
  Mean Plasma Concentration (ng/mL) of metabolite DMT: BLQ (BLQ: Below Lower Limit of Quantification (0.5 ng/mL))
[1]; 1.00 h
  Mean Plasma Concentration (ng/mL) of metabolite DMT: BLQ (BLQ: Below Lower Limit of Quantification (0.5 ng/mL))
[1]; 2.00 h
  Mean Plasma Concentration (ng/mL) of metabolite DMT: BLQ (BLQ: Below Lower Limit of Quantification (0.5 ng/mL))
[1]; 4.00 h
  Mean Plasma Concentration (ng/mL) of metabolite DMT: BLQ (BLQ: Below Lower Limit of Quantification (0.5 ng/mL))
[1]; 7.00 h
  Mean Plasma Concentration (ng/mL) of metabolite DMT: BLQ (BLQ: Below Lower Limit of Quantification (0.5 ng/mL))
[1]; 24.0 h
  Mean Plasma Concentration (ng/mL) of metabolite DMT: BLQ (BLQ: Below Lower Limit of Quantification (0.5 ng/mL))

## COc1ccc2c(c1)c(CCN(C)C)cn2C(C)=O [5-MeO-DMT AP-1, 1-[3-[2-(dimethylamino)ethyl]-5-methoxy-indol-1-yl]ethanone]
[1]; [7]
  AUC0-last: 180 ng·h/mL
  Cmax: 69 ng/mL
  T½: 74.4 min
[1]; [5]
  Tmax: 30 min
  tlast: 7.00 h

## CN(C)CCc1cn(C(=O)CC(C)(C)C(=O)O)c2ccccc12 [DMT-3,3-dimethylsuccinate hydrochloride, 4-(3-(2-(dimethylamino)ethyl)-1H-indol-1-yl)-2,2-dimethyl-4-oxobutanoic acid HCl salt]
[1]; time 0.50 h
  Mean Plasma Concentrations of metabolite DMT: BLQ (BLQ: Below Lower Limit of Quantification (0.5 ng/mL))
[1]; time 1.00 h
  Mean Plasma Concentrations of metabolite DMT: BLQ (BLQ: Below Lower Limit of Quantification (0.5 ng/mL))
[1]; time 2.00 h
  Mean Plasma Concentrations of metabolite DMT: BLQ (BLQ: Below Lower Limit of Quantification (0.5 ng/mL))
[1]; time 4.00 h
  Mean Plasma Concentrations of metabolite DMT: BLQ (BLQ: Below Lower Limit of Quantification (0.5 ng/mL))
[1]; time 7.00 h
  Mean Plasma Concentrations of metabolite DMT: BLQ (BLQ: Below Lower Limit of Quantification (0.5 ng/mL))
[1]; time 24.0 h
  Mean Plasma Concentrations of metabolite DMT: BLQ (BLQ: Below Lower Limit of Quantification (0.5 ng/mL))

## CC(C)OC(=O)n1cc(CCN(C)C)c2ccccc21 [DMT CP-2, isopropyl 3-[2-(dimethylamino)ethyl]indole-1-carboxylate]
[1]; male, Sprague-Dawley, rat, plasma, po, 10 mg/kg, AUC0-24 (h*ng/mL), oral 10 mg/Kg, analyte = dosed prodrug, mean
  AUC(0-t): 60.9 ng·h/mL
[1]; [3]
  AUC(0-t): 39.4 ng·h/mL
[1]; [4]
  Cmax: 17.4 ng/mL
[1]; [5]
  tlast: 4.00 h

## CC(C)COC(=O)n1cc(CCN(C)C)c2ccccc21 [DMT CP-5, isobutyl 3-[2-(dimethylamino)ethyl]indole-1-carboxylate]
[1]; [3]
  AUC(0-t): 8.63 ng·h/mL
[1]; [4]
  Cmax: 2.92 ng/mL
[1]; [5]
  tlast: 4.00 h

## CN(C)CCc1cn(C(=O)N(C)C)c2ccccc12 [DMT N,N-dimethyl urea formate, 3-[2-(dimethylamino)ethyl]-N,N-dimethyl-indole-1-carboxamide]
[1]; time 0.50 h
  Mean Plasma Concentrations of metabolite DMT: BLQ (BLQ: Below Lower Limit of Quantification (0.5 ng/mL))
[1]; time 1.00 h
  Mean Plasma Concentrations of metabolite DMT: BLQ (BLQ: Below Lower Limit of Quantification (0.5 ng/mL))
[1]; time 2.00 h
  Mean Plasma Concentrations of metabolite DMT: BLQ (BLQ: Below Lower Limit of Quantification (0.5 ng/mL))
[1]; time 4.00 h
  Mean Plasma Concentrations of metabolite DMT: BLQ (BLQ: Below Lower Limit of Quantification (0.5 ng/mL))
[1]; time 7.00 h
  Mean Plasma Concentrations of metabolite DMT: BLQ (BLQ: Below Lower Limit of Quantification (0.5 ng/mL))
[1]; time 24.0 h
  Mean Plasma Concentrations of metabolite DMT: BLQ (BLQ: Below Lower Limit of Quantification (0.5 ng/mL))

## COc1ccc2c(c1)c(CCN(C)C)cn2C(=O)OC(C)C [5-MeO-DMT CP-2, isopropyl 3-[2-(dimethylamino)ethyl]-5-methoxy-indole-1-carboxylate]
[1]; [3]
  AUC(0-t): 6.8 ng·h/mL
[1]; [4]
  Cmax: 5.7 ng/mL
[1]; [5]
  tlast: 2.50 h

## CC(=O)n1cc(CCN(C)C)c2ccccc21 [DMT AP-1, 1-[3-[2-(dimethylamino)ethyl]indol-1-yl]ethenone]
[1]; [3]
  AUC(0-t): 2.16 ng·h/mL
[1]; [4]
  Cmax: 3.53 ng/mL
[1]; [5]
  tlast: 1.00 h

## CCCOC(=O)n1cc(CCN(C)C)c2ccccc21 [DMT CP-4, propyl 3-[2-(dimethylamino)ethyl]indole-1-carboxylate]
[1]; [3]
  AUC(0-t): 28.2 ng·h/mL
[1]; [4]
  Cmax: 14.3 ng/mL
[1]; [5]
  tlast: 4.50 h

## COc1ccc2c(c1)c(CCN(C)C)cn2C(=O)CCC(=O)O [5-MeO-DMT Non-Lipid Prodrug 5, 4-(3-(2-(dimethylamino)ethyl)-5-methoxy-1H-indol-1-yl)-4-oxobutanoic acid]
[1]; [3]
  AUC(0-t): 85.7 ng·h/mL
[1]; [4]
  Cmax: 23 ng/mL
[1]; [5]
  tlast: 7.00 h

## COc1ccc2c(c1)c(CCN(C)C)cn2C(=O)OC(C)(C)C [5-MeO-DMT CP-3, tert-butyl 3-[2-(dimethylamino)ethyl]-5-methoxy-indole-1-carboxylate]
[1]; [3]
  AUC(0-t): 17.3 ng·h/mL
[1]; [4]
  Cmax: 7.51 ng/mL
[1]; [5]
  tlast: 4.00 h

## CN(C)CCc1cn(C(=O)c2ccccc2)c2ccccc12 [DMT Benzamide]
[1]; [3]
  AUC(0-t): 66.5 ng·h/mL
[1]; [4]
  Cmax: 17.7 ng/mL
[1]; [5]
  tlast: 7.00 h
